Assays:
Assay type in all cases: functional
[1] = system: RAW264.7; assay: Immunosuppressive activity in LPS-treated mouse RAW264.7 cells assessed as inhibition of IL-6 level at 20 uM incubated for 24 hrs by ELISA analysis relative to control
[2] = Immunosuppressive activity in anti-CD3/CD28 stimulated C57BL/6 mouse T cell line assessed as inhibition of IFN-gamma level at 20 uM incubated for 48 hrs by ELISA analysis relative to control; conditions: C57BL/6, T-cell
[3] = Immunosuppressive activity in anti-CD3/CD28 stimulated C57BL/6 mouse T cell line assessed as inhibition of IFN-gamma level at 0.1 uM incubated for 48 hrs by ELISA analysis relative to control; conditions: C57BL/6, T-cell
[4] = system: Jurkat; assay: Immunosuppressive activity in PMA and PHA activated human Jurkat cells assessed as inhibition of IL-2 level at 0.1 uM incubated for 48 hrs by ELISA analysis relative to control
[5] = system: RAW264.7; assay: Immunosuppressive activity in LPS-treated mouse RAW264.7 cells assessed as inhibition of TNF-alpha level at 40 uM incubated for 24 hrs by ELISA analysis relative to control
[6] = system: RAW264.7; assay: Immunosuppressive activity in LPS-treated mouse RAW264.7 cells assessed as inhibition of MCP-1 level at 40 uM incubated for 24 hrs by ELISA analysis relative to control
[7] = system: RAW264.7; assay: Immunosuppressive activity in LPS-treated mouse RAW264.7 cells assessed as inhibition of IL-6 level at 40 uM incubated for 24 hrs by ELISA analysis relative to control
[8] = system: Jurkat; assay: Immunosuppressive activity in PMA and PHA activated human Jurkat cells assessed as inhibition of IL-2 level at 40 uM incubated for 48 hrs by ELISA analysis relative to control
[9] = system: RAW264.7; assay: Immunosuppressive activity in LPS-treated mouse RAW264.7 cells assessed as inhibition of TNF-alpha level at 1 uM incubated for 24 hrs by ELISA analysis relative to control
[10] = system: RAW264.7; assay: Immunosuppressive activity in LPS-treated mouse RAW264.7 cells assessed as inhibition of MCP-1 level at 1 uM incubated for 24 hrs by ELISA analysis relative to control
[11] = system: Jurkat; assay: Immunosuppressive activity in PMA and PHA activated human Jurkat cells assessed as inhibition of IL-2 level at 20 uM incubated for 48 hrs by ELISA analysis relative to control

| Structure (SMILES) | inhibition at 20 µM [1] [%] | inhibition at 20 µM [2] [%] | inhibition at 40 µM [5] [%] | inhibition at 40 µM [6] [%] | inhibition at 40 µM [7] [%] | inhibition at 40 µM [8] [%] | further results |
| --- | --- | --- | --- | --- | --- | --- | --- |
| Cc1ccoc1CC[C@]1(C)O[C@@]2(CCC(C)Cl)O[C@H]3C[C@H](C)[C@H]4C(=O)[C@@H]1[C@]2(O)[C@H](C)[C@H]43 (some centres not stated) | 45.6 | 61.2 | – | – | – | – | – |
| C[C@@H]1C[C@H]2[C@@H]3CCC4=CC(=O)C=C[C@]4(C)[C@@]3(F)[C@@H](O)C[C@]2(C)[C@@]1(O)C(=O)CO [DEXAMETHASONE] | – | – | – | – | – | – | inhibition at 0.1 µM [3]: 98.3%; inhibition at 0.1 µM [4]: 98.9% |
| CC(=O)O[C@H]1C[C@H](C)[C@H]2C(=O)C3=C([C@H](C)[C@H]21)[C@@]1(CC[C@H](C)O1)O[C@]3(C)CC[C@@H]1OC(=O)C=C1C | – | – | 52.5 | 32.2 | 10.4 | < 10 | – |
| CC(=O)O[C@H]1C[C@H](C)[C@H]2C(=O)C3=C(/C(=C/C(C)C)O[C@]3(C)CCc3occc3C)[C@H](C)[C@H]21 | – | – | 24.3 | 31.9 | < 10 | 21.1 | – |
| C/C=C/C[C@@H](C)[C@@H](O)[C@H]1C(=O)N[C@@H](CC)C(=O)N(C)CC(=O)N(C)[C@@H](CC(C)C)C(=O)N[C@@H](C(C)C)C(=O)N(C)[C@@H](CC(C)C)C(=O)N[C@@H](C)C(=O)N[C@H](C)C(=O)N(C)[C@@H](CC(C)C)C(=O)N(C)[C@@H](CC(C)C)C(=O)N(C)[C@@H](C(C)C)C(=O)N1C [CYCLOSPORINE] | – | – | – | – | – | – | inhibition at 1 µM [9]: 70.8%; inhibition at 1 µM [10]: 66% |
| Cc1ccoc1CC[C@]1(C)O[C@@]2(CC(C)CCl)O[C@H]3C[C@H](C)[C@H]4C(=O)[C@@H]1[C@]2(O)[C@H](C)[C@H]43 (some centres not stated) | 38.6 | 67.4 | – | – | – | – | inhibition at 20 µM [11]: 33.1% |
